“Also recorded” adds a separate entry of the source. {Fluorescein} = fluorescein label
Columns and labels:
Type in all cases: cell-based, mouse
[1] = system: Ngb mRNA; test: Ngb protein expression in cultured cortical neurons transfected with antisense/sense ODN (Western blot); details: ODN-transfected cortical neurons vs sense-transfected or untransfected control cultures
Procedure: Cell lysates were prepared as described (Jin et al. (2000) Proc. Natl. Acad. Sci. U.S.A. 97: 10242-10247) and 100-μg protein samples were electrophoresed on 12% SDS-PAGE gels and transferred to polyvinyldifluoridine membranes. Membranes were incubated overnight at 4° C. with a rabbit polyclonal antibody against Ngb (1:2000), which was produced by immunizing with a synthetic peptide corresponding to amino-acids 35-50 (NH2-CLSSPEFLDHIRKVML-COOH, , SEQ ID NO:1) of mouse Ngb, and affinity-purified using a Sulfolink kit (Pierce). A horseradish peroxidase-conjugated anti-rabbit secondary antibody (Santa Cruz Biotechnology) and a chemiluminescence substrate system (NEN) were used to visualize the immunolabeled bands (Id.).
(§1) A phosphorothioate antisense ODN labeled with fluorescein at the 5′ end and directed against the initial coding region of the target Ngb mRNA (5′-TCC GGG CGC TCC AT-3′, from nucleotides 90-77, SEQ ID NO:2)was designed based on the mouse Ngb sequence obtained from Genbank (accession number NM 022414). […] Cultures were analyzed by Western blotting and by MTT cell viability assay, and fluorescence microscopy was used to confirm transfection and examine its relationship to cell death, using caspase-3 activation as a marker.

[2] = system: cultured cortical neurons; test: Transfection efficiency of fluorescent ODN in cortical neuron cultures; details: fluorescent Ngb antisense ODN, DAPI counterstain, n=10
From the text: A phosphorothioate antisense ODN labeled with fluorescein at the 5′ end and directed against the initial coding region of the target Ngb mRNA (5′-TCC GGG CGC TCC AT-3′, from nucleotides 90-77, SEQ ID NO:2)was designed based on the mouse Ngb sequence obtained from Genbank (accession number NM 022414). This and a sense sequence (5′-ATG GAG CGC CCG GA-3′, SEQ ID NO:3), from nucleotides 77-90) were synthesized commercially (Operon Technologies) and purified by HPLC. Cultures were transfected with ODNs (1-10 μM) using FuGENE 6 (Roche), beginning 3 h before the onset of hypoxia. Cultures were analyzed by Western blotting and by MTT cell viability assay, and fluorescence microscopy was used to confirm transfection and examine its relationship to cell death, using caspase-3 activation as a marker.
To begin to investigate the possibility that Ngb protects neurons from hypoxia, cultured neurons were transfected with a phosphorothioate antisense ODN directed against the initial coding region of the target Ngb mRNA (5′-TCC GGG CGC TCC AT-3′, from nucleotides 90-77, SEQ ID NO:4) or with a control sense sequence (5′-ATG GAG CGC CCG GA-3′, from nucleotides 77-90, SEQ ID NO:5), both labeled with fluorescein at the 5′ end. Transfection efficiency, measured in cultures transfected with the fluorescent Ngb antisense ODN and counterstained with DAPI, was 96±1% (n=10). […]

[3] = system: cultured cortical neurons; test: Cell viability (MTT absorbance, trypan blue exclusion) of ODN-treated cultured cortical neurons
Procedure: Neuronal cultures were prepared from the cerebral hemispheres of 16-day Charles River CD1 mouse embryos, seeded at 3×10^5 cells per well on 24-well culture dishes precoated with poly-D-lysine, and grown in Eagle's minimal essential medium (GIBCO BRL) with 5% horse serum and 5% fetal bovine serum (Jin et al. (2000) Proc. Natl. Acad. Sci. U.S.A. 97: 10242-10247). Cultures were treated with 10 μM cytosine arabinoside on day 6 and used on day 11, when >95% of cells expressed the neuronal marker, microtubule-associated protein 2. […] Cell viability was assayed by incubating cultures with 5 mg/ml of 3-(4,5-dimethylthiazol-2-yl)-2,5-diphenyl tetrazolium bromide (MTT) at 37° C. for 2 h and measuring absorbance at 570 nm in solubilized cells using a Cytofluor Series 4000 multi-well plate-reader (PerSeptive Biosystems). […]
as §1

[4] = system: 17-20 kDa caspase-3 cleavage product; test: Caspase-3 cleavage product immunofluorescence in ODN-transfected cortical neurons; details: fluorescence microscopy, hypoxic cortical neurons
Procedure: Cultures were fixed with 4% paraformaldehyde and incubated over night at 4° C. with one or more of the following primary antibodies: rabbit polyclonal anti-Ngb (1:200), mouse monoclonal anti-NeuN (1:200, Chemicon), and rabbit polyclonal anti-17-20 kDa caspase-3 cleavage product (1:100, New England Biolabs). The secondary antibodies (all 1:200) were fluorescein isothiocyanate-conjugated goat anti-rabbit or anti-mouse IgG (Vector) and rhodamine-conjugated donkey anti-rabbit IgG (Jackson ImmunoResearch). Controls for non-specific binding included omitting primary (FIG. 1C) or secondary antibodies. In addition, in some cultures, nuclei were labeled with 4′,6-diamidino-2-phenylindole (DAPI) or DNA strand breaks were labeled with the Klenow fragment of DNA polymerase I (Roche) followed by rhodamine avidin D (Vector), as described (Jin et al. (1999) J Neurochem 72: 1204-1214). Fluorescence signals were detected with a Nikon E800 epifluorescence microscope using excitation/emission wavelengths of 535/565 nm for rhodamine (red), 470/505 nm for fluorescein isothiocyanate (green) and 360/400 nm for DAPI (blue). Results were recorded with a Magnifire digital color camera (Optronics). […]

Substance: 5′-TCC GGG CGC TCC AT-3′ (antisense TCCGGGCGCTCCAT; DNA, all phosphorothioate, 5' {Fluorescein}, methylation of C not given here) [antisense ODN]
- Ngb protein expression [1]: reduced; also recorded: decreased Ngb expression
- Transfection efficiency [2]: 96±1%
- effect on the toxicity of staurosporine or SNP ([3]; 0.1 μM staurosporine or 200-400 μM SNP, 12 h, 5 μM ODN): no effect
- viability of cultured neurons exposed to hypoxia ([3]; 12 h without oxygen, 5 μM ODN added 3 h prior, MTT absorbance or trypan blue exclusion): decrease in the viability
- transfected cells co-expressing the 17-20 kDa caspase-3 cleavage product [4]: many
